The source of these data is patent US9649308B2, “Benzamide-containing compounds and their use in the treatment of pain” (H. Lundbeck A/S, priority 2012, dated 2017).

SMILES strings stand for the structures.

The target in the experiment is human P2X7 receptor (Homo sapiens (Human), UniProt Q99572). Kind of experiment: P2X7 FLIPR antagonist assay (BzATP-stimulated, 293 HEK cells stably expressing P2X7 receptor). It counts as cell-based. As to conditions: Table 1, exemplified IC50 values; antagonist activity vs BzATP. As for the experimental part: This example illustrates representative assays for use in evaluating the test compounds for antagonist activity. Compounds of the present invention were tested in vitro for their ability to act as antagonists to the P2X7 receptor.
human P2X7 receptor, sequence (Q99572 whole entry): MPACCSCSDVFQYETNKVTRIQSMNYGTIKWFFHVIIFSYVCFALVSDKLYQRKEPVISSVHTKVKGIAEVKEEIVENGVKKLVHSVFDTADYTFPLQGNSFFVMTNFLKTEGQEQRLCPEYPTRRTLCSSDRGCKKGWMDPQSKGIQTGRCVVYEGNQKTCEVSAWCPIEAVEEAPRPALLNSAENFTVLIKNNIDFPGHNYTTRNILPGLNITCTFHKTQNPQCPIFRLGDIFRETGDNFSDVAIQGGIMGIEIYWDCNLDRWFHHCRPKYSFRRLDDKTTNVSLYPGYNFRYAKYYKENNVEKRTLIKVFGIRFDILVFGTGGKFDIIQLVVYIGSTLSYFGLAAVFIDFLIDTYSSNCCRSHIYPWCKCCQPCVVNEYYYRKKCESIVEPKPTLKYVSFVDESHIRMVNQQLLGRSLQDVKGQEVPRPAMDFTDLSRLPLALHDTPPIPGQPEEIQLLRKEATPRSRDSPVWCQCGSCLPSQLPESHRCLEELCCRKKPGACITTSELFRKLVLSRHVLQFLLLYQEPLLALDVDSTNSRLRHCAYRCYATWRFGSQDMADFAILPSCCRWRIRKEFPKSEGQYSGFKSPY
Cells were plated to cell density of approximately 15,000 cells/well in 384-well assay plates (50 μl/well) with 1.5% low serum media (DMEM, 1.5% BCS, 1% L-glut (2 mM), 1% P/S).
Cells were plated to cell density of approximately 15,000 cells/well in 384-well assay plates (50 μl/well) with 1.5% low serum media (DMEM, 1.5% FBS, 1% L-glut (2 mM), 10 mM HEPES, 1% P/S). Cells were plated 24 hours prior to assay. Cells expressing human, rat or mouse P2X7 receptor were assayed in the following manner.
Fluo-4 NW dye mix (Molecular Probes, Inc., Eugene, Oreg., USA) was prepared in buffer (see manufacturer's instructions). Cell plates were removed from the 37° C. incubator, the media discarded and then 30 μL of dye was added to each well. Plates were placed in the 37° C., non-CO2 incubator for 30 minutes and then room temperature for 30 minutes.
B) Agonist only mixture was prepared with BzATP at a single concentration in buffer (concentration determined by dose response).
Compound mixtures (A) were added to assay plates containing cells and placed at room temperature for 30 minutes, then BzATP (B) was added. Fluorescence was read using the Tetra FLIPR® (Molecular Devices, Inc., Sunnyvale, Calif., USA) and IC50 values were calculated by standard methods to determine antagonist activity.
As for `Cc1ncc(C(CNC(=O)c2cccc(Cl)c2Cl)C2CCC(F)(F)CC2)cn1` (single isomer, unassigned; (+)) [(+)2,3-dichloro-N-[2-(4,4-difluorocyclohexyl)-2-(2-methylpyr] [(+)2,3-dichloro-N-[2-(4,4-difluorocyclohexyl)-2-(2-methylpyrimidin-5-yl)ethyl]benzamide], the midpoint of inhibition, the IC50, lay at 0.0084 µM.
In the case of `Cc1ncc(C(CNC(=O)c2cccc(Cl)c2Cl)C2CCC(F)(F)CC2)cn1` (single isomer, unassigned; (-)) [(−)2,3-dichloro-N-[2-(4,4-difluorocyclohexyl)-2-(2-methylpyr] [(−)2,3-dichloro-N-[2-(4,4-difluorocyclohexyl)-2-(2-methylpyrimidin-5-yl)ethyl]benzamide] it was 0.016 µM; in that of `O=C(NCC(CC1CC1)c1ccc(C(F)F)nc1)c1cccc(Cl)c1Cl` (single isomer, unassigned; (-)) [(−)2,3-dichloro-N-[3-cyclopropyl-2-[6-(difluoromethyl)-3-pyr] [(−)2,3-dichloro-N-[3-cyclopropyl-2-[6-(difluoromethyl)-3-pyridyl]propyl]benzamide], 0.0019 µM; in that of `Cc1ncc(C(CNC(=O)c2cccc(Cl)c2Cl)c2ccncc2)cn1` (stereo not shown) [2,3-dichloro-N-[2-(2-methylpyrimidin-5-yl)-2-(4-pyridyl)ethyl]benzamide], 0.05 µM.
In the case of `Cc1ncc(C2(C(C)NC(=O)c3c(F)cccc3Cl)CCOCC2)cn1` (stereo not shown) [2-chloro-6-fluoro-N-[1-[4-(2-methylpyrimidin-5-yl)tetrahydropyran-4-yl]ethyl]benzamide] it was 0.055 µM; in that of `O=C(NCC1(c2cnc(C(F)(F)F)nc2)CCOCC1)c1ccccc1Cl` [2-chloro-N-[[4-[2-(trifluoromethyl)pyrimidin-5-yl]tetrahydropyran-4-yl]methyl]benzamide], 4.4 µM.
`Cc1ncc(C(CNC(=O)c2c(F)cccc2Cl)c2ccncc2)cn1` (stereo not shown) [2-chloro-6-fluoro-N-[2-(2-methylpyrimidin-5-yl)-2-(4-pyridyl)ethyl]benzamide] had a half-maximal inhibitory concentration (IC50) of 0.64 µM.
